In patent US20140243400A1, “COMPOSITIONS COMPRISING CITRIC ACID AND MALIC ACID AND METHODS AND USES THEREOF” (University of Alaska Anchorage, priority 2013, published 2014):
Entries after “also recorded” stand apart in the source; their conditions may differ.

Assays:
[1] = tested on: neutral sphingomyelinase (nSMase); experiment: nSMase-mediated ceramide release in TNF-α-treated neuroblastomas; type: cell-based; conditions: neuroblastomas treated with TNF-α in conjunction with citrate or malate at 0.5 μg/ml
Procedure: Neuroblastomas were not treated (NT) or treated with tumor necrosis factor α (TNF-α), either alone or in conjunction with citrate or malate at 0.5 μg/ml.
Ceramides and ceramide metabolites are important intracellular signaling molecules which influence inflammation, proliferative and apoptotic processes, neurodegeneration, and insulin sensitivity. Elevated ceramides are associated with neurodegenerative disorders including Alzheimer's and Parkinson's disease as well as normal aging.

[2] = Tolerability of oral malate in aged rats; type: in vivo; conditions: 24 aged rats, 200 mg/Kg orally, voluntary consumption in water
[3] = tested on: SH-SY5Y human neuroblastoma cells; experiment: Intracellular malate after malate pretreatment and peroxide insult; type: cell-based
Procedure: Intracellular malate decreases 20% in the first 30 minutes following peroxide treatment and continues to slowly decrease over the rest of the time course. SH-SY5Y human neuroblastoma cells were grown to 90% confluency on 100 mm tissue culture dishes in 10% FBS supplemented DMEM, serum starved for 12 hours, and treated with 100 μM H2O2 in serum free DMEM for either 0, 15, 30, 45, 60, or 90 minutes. All treatments were performed in triplicate. Following treatment, neurons were rinsed with PBS, harvested and evaluated for total […] via abcam malate assay kit (ab83391). […] Cells were treated with 0.5 μg/mL malate in serum free DMEM for 1 hour prior to peroxide insult. Malate supplementation increased intracellular malate by nearly 50%.

[4] = tested on: SH-SY5Y human neuroblastoma cells; experiment: Intracellular GSH after malate pretreatment and peroxide insult; type: cell-based; conditions: 0.5 μg/mL malate for 1 hour prior to peroxide insult
Procedure: GSH is widely considered the cornerstone of endogenous redox defense. Intracellular concentrations of total GSH clearly decrease in response to oxidative insult, confirming GSH is actively consumed as part of the endogenous redox defense response in human neurons, specifically to produce regenerate antioxidative enzymes. […] All treatments were performed in triplicate. Following treatment, neurons were rinsed with PBS and evaluated for total GSH (excluding GSSG) via Promega GSH-Glo Glutathione Assay. The assay is based on the conversion of a lucifin derivative into lucifierin in the presence of GSH. […] Cells were treated with 0.5 μg/mL malate in serum free DMEM for 1 hour prior to peroxide insult.

[5] = tested on: Fischer F344 inbred rats; experiment: Spatial memory, rewarded alternation in T-maze, aged rats; type: in vivo; conditions: for T-maze alternation: 200 mg/Kg in water, 6 weeks supplementation; for spatial memory vs control rats: aged F344 rats, 200 mg/Kg, T-maze
Procedure: Spatial memory was measured by alternation in a T-maze. […] Both aged groups supplemented with malic acid performed equivalently to non-impaired rats, at 85% correct alternation, or better.
24 male Fischer F344 inbred rats were evaluated at 10 months and 23 months of age. Half were provided supplemental dietary malate. Following 6 weeks supplementation, spatial memory was evaluated using a rewarded alternation procedure in a T-maze apparatus (10 trials per subject). Healthy, non-impaired, rats alternate at 85% while hippocampectomized rats incapable of encoding spatial memories alternate at chance, 50%. […] The 23 month old, control, rats were severely impaired, hardly scoring better than chance, at 57% alternation. 23 month old malate-supplemented rats alternated at 85%, a score equivalent to a young, not impaired rat. (FIG. 10).

| nSMase-mediated ceramide release / nSMase activation ([1]; listed as Citrate) | SMILES | nSMase-mediated ceramide release / nSMase activation [1] | ill effects observed [2] | intracellular malate after peroxide insult ([3]; 0.5 μg/mL malate for 1 hour prior to peroxide insult) | increase of intracellular malate ([3]; 0.5 μg/mL malate in serum free DMEM for 1 hour) [%] | intracellular GSH after peroxide insult [4] | intracellular GSH vs non-supplemented cells ([4]; 0-60 minutes post peroxide) | T-maze alternation ([5]; 10 month old F344 rats) [%] | T-maze alternation ([5]; 23 month old F344 rats) [%] | spatial memory vs control rats [5] | spatial memory vs control rats ([5]; listed as malic acid) | T-maze correct alternation ([5]; both aged groups (10 and 23 months), oral 200 mg/Kg) [%] |
| --- | --- | --- | --- | --- | --- | --- | --- | --- | --- | --- | --- | --- |
| significantly decrease | O=C(O)CC(O)(CC(=O)O)C(=O)O [citrate, citric acid] | able to curb nSMase activation |  |  |  |  |  |  |  |  |  |  |
|  | O=C(O)CC(O)C(=O)O (stereo not shown) [malate, malic acid] | significantly decrease; also recorded: able to curb nSMase activation | no ill effects were observed | higher levels than non-treated and non-insulted cells; also recorded: prevent critical depletion of malate | ~50 | higher levels of GSH than non-treated and non-insulted cells; also recorded: prevent critical depletion of GSH | significantly higher levels of GSH than non-supplemented cells; also recorded: increase intracellular pools of GSH | 92.5 | 85 | statistically significant improvement in spatial memory | significantly improves performance in spatial memory | ≥ 85 |
